For one data set, the system named is Zymoseptoria tritici. The data set can be described thus: microbe, parasite or virus in culture. The following applies: for inhibition at 0.05 ppm / inhibition at 0.1 ppm / inhibition at 0.5 ppm / inhibition at 1 ppm: Zymoseptoria tritici. It counts as cell-based.
In the next data set the test system is Phytophthora infestans. Kind of data set: microbe, parasite or virus in culture. In kind it is cell-based. The following applies: for inhibition at 0.05 ppm: read-out: Activity (%) 0.05 ppm; for inhibition at 0.1 ppm: read-out: Activity (%) 0.1 ppm; for inhibition at 0.5 ppm: read-out: Activity (%) 0.5 ppm; for inhibition at 1 ppm: read-out: Activity (%) 1 ppm; for inhibition at 5 ppm: read-out: Activity (%) 5 ppm; for inhibition at 10 ppm: read-out: Activity (%) 10 ppm; for inhibition at 50 ppm: read-out: Activity (%) 50 ppm.

The subject of the next data set is Venturia inaequalis. Kind of data set: microbe, parasite or virus in culture. In kind it is cell-based.
The test system of data set [1] is Plasmopara viticola strain PvS. Kind of data set: Grapevine downy mildew, preventive treatment of detached grapevine leaves / leaf discs. In kind it is in vivo. The following applies: 2267 ppm, preventive 24 h, 7 dpi.
The test system of data set [2] is Phytophthora infestans strain Pi96. It counts as in vivo. The following applies: for Disease Severity Index (%) 3 dpi / Disease Severity Index (%) 7 dpi / Disease Severity Index (%) 5 dpi / Disease Severity Index (%) 10 dpi: preventive 24 h.
A short description of data set [3]: Water solubility as a function of pH. It counts as physicochemical. The following applies: increases at pH values below 7.0 and above 7.0.

Results on five compounds are retold here after patent US20240032533A1 (priority 2020, published 2024).

Molecules are shown by their SMILES. Read-outs that look alike come from different tables or passages of the source.

`CCCCCCCCCCCCCCCCCC[S+](C)C.[I-]` [1-5, octadecyl dimethyl sulfonium iodide]: the “Activity (%) 0.05 ppm” value in the data set on Zymoseptoria tritici (0.05 ppm) is given as 6.4%. Moreover, in the data set with Zymoseptoria tritici, the “Activity (%) 0.1 ppm” value was found to be 2.7%. Also, the “Activity (%) 0.5 ppm” value with Zymoseptoria tritici (0.5 ppm) is recorded as 11.2%. The “Activity (%) 1 ppm” value with Zymoseptoria tritici (1 ppm) turned out to be 92.7%.

With `N#Cc1c(Cl)c(Cl)c(Cl)c(C#N)c1Cl` [Chlorothalonil], in the data set with Phytophthora infestans, the inhibition at 0.05 ppm is -11.8%, the inhibition at 0.1 ppm was -5.8%, the inhibition at 0.5 ppm is -2% and the inhibition at 1 ppm amounted to 15.3%. In the data set with Phytophthora infestans, the inhibition at 5 ppm was found to be 99.2%, the inhibition at 10 ppm stood at 98.5% and the inhibition at 50 ppm is 100%. Also, in the data set on Zymoseptoria tritici (0.05 ppm), the inhibition at 0.05 ppm is 4.3%. Moreover, the inhibition at 0.1 ppm with Zymoseptoria tritici is 10%. In addition, in the data set on Zymoseptoria tritici (0.5 ppm), the inhibition at 0.5 ppm came to 17.9%. Besides, the inhibition at 1 ppm in the data set with Zymoseptoria tritici (1 ppm) worked out at 54.7%. In the data set on Venturia inaequalis, the inhibition at 0.1 ppm came to 34.3%, the inhibition at 0.5 ppm was 88.8% and the inhibition at 1 ppm is 97.4%.

On to `CCCCCCCCCCCCNC(=N)N` [Dodine], for which, in the data set with Phytophthora infestans, the inhibition at 0.05 ppm is 12.5%, the inhibition at 0.1 ppm turned out to be 12%, the inhibition at 0.5 ppm came to 59.4% and the inhibition at 1 ppm came out at 81.9%. In addition, in the data set on Phytophthora infestans, the inhibition at 5 ppm is 93.8%, the inhibition at 10 ppm is 95.5% and the inhibition at 50 ppm is 98.9%. Also, the “control towards Downy Mildew” value in data set [1] is “full control”. Besides, the inhibition at 0.05 ppm with Zymoseptoria tritici (0.05 ppm) worked out at 5.2%. The inhibition at 0.1 ppm in the data set with Zymoseptoria tritici came out at 21.4%. Moreover, the inhibition at 0.5 ppm in the data set with Zymoseptoria tritici (0.5 ppm) is 101%. Further, the inhibition at 1 ppm with Zymoseptoria tritici (1 ppm) was 98.1%. Also, in the data set on Venturia inaequalis, the inhibition at 0.1 ppm is 83.2%, the inhibition at 0.5 ppm worked out at 98.2% and the inhibition at 1 ppm was determined as 97.3%.

As for `CCCCCCCCCCCCCCCCCC[S+](C)C.[Cl-]` [ODS-Cl, octadecyl dimethyl sulfonium chloride], in data set [2] (50 ppm), the “Disease Severity Index (%) 3 dpi” value was 8.7% and the “Disease Severity Index (%) 7 dpi” value was determined as 40.0%. Also, the “Disease Severity Index (%) 3 dpi” value in data set [2] (100 ppm) was found to be 5.5%. For the same compound, in data set [2] (500 ppm), the “Disease Severity Index (%) 3 dpi” value amounted to 0.0%, the “Disease Severity Index (%) 5 dpi” value is 0.0%, the “Disease Severity Index (%) 7 dpi” value was determined as 0.0% and the “Disease Severity Index (%) 10 dpi” value was 0.0%. In addition, in data set [2] (1000 ppm), the “control of the disease (late blight)” value is on record as “full control”, the “Disease Severity Index (%) 3 dpi” value is 0.0%, the “Disease Severity Index (%) 5 dpi” value came to 0.0% and the “Disease Severity Index (%) 7 dpi” value is on record as 0.0%. For the same compound, the “Disease Severity Index (%) 10 dpi” value in data set [2] (1000 ppm) stood at 0.0%. In addition, in the data set with Phytophthora infestans, the inhibition at 0.05 ppm came to 6.2%, the inhibition at 0.1 ppm was 12.6%, the inhibition at 0.5 ppm stood at 12.5% and the inhibition at 1 ppm came to 12.3%. For the same compound, in the data set with Phytophthora infestans, the inhibition at 5 ppm stood at 14.1%, the inhibition at 10 ppm is 29.3% and the inhibition at 50 ppm was 98.4%. The “Activity (%) 0.1 ppm” value in the data set on Zymoseptoria tritici turned out to be 8.8%. The inhibition at 0.05 ppm in the data set with Zymoseptoria tritici (0.05 ppm) came out at 6.5%. The inhibition at 0.5 ppm with Zymoseptoria tritici (0.5 ppm) amounted to 11.5%. For the same compound, the inhibition at 1 ppm with Zymoseptoria tritici (1 ppm) is 91%. Besides, in the data set on Venturia inaequalis, the inhibition at 0.1 ppm is 14.3%, the inhibition at 0.5 ppm is 97.4% and the inhibition at 1 ppm stood at 97.2%.

On to `CCCCCCCCCCCCCCCCCC[S+](C)C.[Cl-]` [octadecyl dimethyl sulfonium chloride], for which, in data set [3], the “water solubility, pH dependency” value is given as “minimum around pH 7.0”.
